Assay results as given in patent publication US9556437B2, “FAT1 gene in cancer and inflammation” (DEPARTMENT OF BIOTECHNOLOGY (DBT), priority 2012, dated 2017).
“Also recorded” adds a separate entry of the source.

How the values were obtained:
Format in all cases: cell-based, human
c-jun = c-jun mRNA level by q-PCR; conditions: U87MGsiFAT1 vs U87MGsiControl
Description: (§1) Cell Culture and siRNA Transfection: The human glioma cell lines U87MG, U373, A172, T98G, GOS3 and SW1088 were obtained from ATCC; Rockville, Md., cultured in DMEM (Sigma-Aldrich, Switzerland) supplemented with 10% (v/v) FCS (Sigma-Aldrich), 3.7 g/l sodium bicarbonate (Sigma-Aldrich), Ciprofloxacin 10 μg/ml and 5% CO2 at 37° C. For transfection, 2×10^5 cells were seeded per 25 cm^2 flask. After 24 hrs, cells were transfected with FAT1 siRNA and universal medium GC control siRNA (Invitrogen) according to the manufacturer's protocol with a final concentration of 20 nM of siRNA using LIPOFECTAMINE 2000 (Invitrogen) and Opti-Mem media (Invitrogen). After 4 hrs of siRNA transfection, the media was supplemented with DMEM containing 2×FCS. The ability of each siRNA to mediate knockdown of FAT1 mRNA was confirmed using qRT-PCR. Photomicrographs of the cells were taken using an inverted phase contrast microscope (Nikon TMS, Phase contrast microscope, Japan). For simultaneous knockdown of FAT1 and PDCD4, siRNA from Dharmacon were used. Transfection was performed as earlier with 50 nM of FAT1 siRNA along with 50 nM of PDCD4 siRNA or 50 nM of control siRNA.
(§2) cDNA Synthesis and Quantitative PCR: Total RNA was isolated from cells at appropriate time point (vide supra) using TRIzol reagent (Invitrogen), quantified using a Nanodrop ND-1000 spectrophotometer. […]

MMP3 = MMP3 mRNA expression by q-PCR; conditions: U87MGsiFAT1 cells
Description: as §1, §2

IL6 = IL6 mRNA expression by q-PCR; conditions: U87MGsiFAT1 vs siControl
Description: as §1, with “The ability of each siRNA to mediate knockdown of FAT1 mRNA was confirmed using qRT-PCR.” left out
cDNA Synthesis and Quantitative PCR: Total RNA was isolated from cells at appropriate time point (vide supra) using TRIzol reagent (Invitrogen), quantified using a Nanodrop ND-1000 spectrophotometer.

A172 cells = test: Migration assay, modified Boyden chamber; conditions: A172siFAT1 vs siControl, 24 hrs assay, 72 hrs post-transfection, P<0.001
Description: (§3) Migration and Invasion Assays: The modified Boyden chamber/matrigel assay was performed according to the manufacturer's directions (BD Biosciences, Bedford, Mass.). For in vitro migration assays, chambers with control inserts that lacked the matrigel coating were used. Transfections were carried out in U87MG and A172 cells and 48 hrs later 3×10^4 U87MG cells/well and 7×10^4 A172 cells/well were resuspended in serum-free DMEM and seeded in triplicate in matrigel-coated (1 mg/ml; BD Biosciences) and uncoated control inserts (8-μm pore-size, BD Bioscience, Bedford, Mass.). The remaining protocol was done as previously described.

U87MG cells [1] = test: Migration assay, modified Boyden chamber; conditions: U87MGsiFAT1 vs siControl, 24 hrs assay, 72 hrs post-transfection, P<0.01
Description: as §3

ECM protease activity = test: Gelatin zymography; conditions: conditioned media of U87MG cells, 72 hrs, vs siControl
Description: Gelatin Zymography: U87MG cells (2.5×10^5 cells/flask) were plated into 25 cm^2 flask. Transfection was performed on day 1 and after 72 hrs, the conditioned medium was collected, clarified by centrifugation, concentrated by Centricon YM-30 (10:1 concentration; Millipore, Billerica, Mass., USA), and separated in non-reducing polyacrylamide gels containing 0.1% (wt/vol) gelatin. The gel was incubated with 1× Zymogram renaturing buffer for 30 min at room temperature, 1× Zymogram developing buffer for 30 min at room temperature, and 1× Zymogram developing buffer at 37° C. for overnight. The gel was then stained for protein with 0.25% (w/v) Coomassie Blue R-250 and then destained with Coomassie R-250 destaining solution (Methanol:Acetic acid:Water (50:10:40). Proteolysis was detected as a white zone in a dark field.

U87MG cells [2] = test: Apoptosis by caspase3 Western blot and DAPI staining; conditions: 72 hrs of transfection
U87MG and A172 cells = test: Cell morphology, phase contrast microscopy; conditions: U87MGsiFAT1 and A172siFAT1 vs siControl, 72 hrs post transfection
Description: as §1

## siFAT1: FAT1 specific siRNA (Invitrogen), FAT Stealth RNAi siRNA-I (HSS103567), used for further experiments (sense CCCAACACACCUGUGGUCAUGGUAA; antisense UUACCAUGACCACAGGUGUGUUGGG; Stealth modification, chemistry not fully specified; listed as Homo sapiens)
c-jun
  c-jun mRNA level: decreased by two folds; also recorded: reduced by two folds
MMP3
  decrease in MMP3 mRNA expression: more than 10 fold
IL6
  reduction in IL6 mRNA expression: ~10 fold
A172 cells
  reduction in migration: > 3 fold
U87MG cells [1]
  reduction in migration: > 2 fold
ECM protease activity
  ECM protease activity: decreased; also recorded: reduced protease activity
U87MG cells [2]
  DNA fragmentation (DAPI staining): no DNA fragmentation; also recorded: No differences
  cleaved caspase-3 (Western blot): no cleaved caspase-3; also recorded: No differences
U87MG and A172 cells
  cell morphology: significant morphological alterations; also recorded: Distinct phenotypic changes
